Data reported in ChEMBL document CHEMBL5137095, “N-Benzyl Benzamide Derivatives as Selective Sub-Nanomolar Butyrylcholinesterase Inhibitors for Possible Treatment in Advanced Alzheimer's Disease” (J Med Chem, 2022).

What was measured:
SH-SY5Y [1] = assay: Neuroprotective activity against amyloid beta (1 to 42)-induced cell damage in human SH-SY5Y cells assessed as cell survival rate at 25 uM pretreated for 2 hrs followed by amyloid beta (1 to 42) addition and measured after 24 hrs by MTT assay; type: functional; conditions: time 26 hrs
[2] = Cytotoxicity against mouse HT-22 cells assessed as cell survival rate at 10 uM by MTT assay; type: toxicity, cell-based; conditions: read-out: Activity
[3] = Cytotoxicity against mouse BV-2 cells assessed as cell survival rate at 10 uM by MTT assay; type: toxicity, cell-based; conditions: read-out: Activity
[4] = n-octanol-water partition coefficient, log P of the compound by HPLC analysis; type: physicochemical
SH-SY5Y [5] = assay: Neuroprotective activity against amyloid beta (1 to 42)-induced cell damage in human SH-SY5Y cells assessed as cell survival at 5 uM pretreated for 2 hrs followed by amyloid beta (1 to 42) addition and measured after 24 hrs by MTT assay; type: functional; conditions: time 26 hrs, read-out: Activity
PC-12 [6] = assay: Neuroprotective activity against H2O2-induced cell damage in rat PC-12 cells assessed as survival rate at 5 to 10 uM pretreated for 2 hrs followed by H2O2 addition and measured after 24 hrs by MTT assay; type: functional; conditions: dose 5-10 µM, time 26 hrs
[7] = Permeability of compound incubated for 18 hrs by PAMPA-BBB assay; type: ADME; conditions: read-out: permeability
HT-22 = assay: Cytotoxicity against mouse HT-22 cells assessed as reduction in cell viability at 10 uM by MTT assay; type: toxicity, cell-based; conditions: ht-22, 10 µM
[8] = Cytotoxicity against human SH-SY5Y cells assessed as cell survival rate at 10 uM by MTT assay; type: toxicity, cell-based; conditions: read-out: Activity
SH-SY5Y [9] = assay: Neuroprotective activity against amyloid beta (1 to 42)-induced cell damage in human SH-SY5Y cells assessed as cell survival at 2 uM pretreated for 2 hrs followed by amyloid beta (1 to 42) addition and measured after 24 hrs by MTT assay; type: functional; conditions: time 26 hrs, read-out: Activity
BV-2 = assay: Cytotoxicity against mouse BV-2 cells assessed as reduction in cell viability at 10 uM by MTT assay; type: toxicity, cell-based; conditions: bv-2, 10 µM
[10] = Cytotoxicity against rat PC-12 cells assessed as cell survival rate at 10 uM by MTT assay; type: toxicity, cell-based; conditions: read-out: Activity
SH-SY5Y [11] = assay: Cytotoxicity against human SH-SY5Y cells assessed as reduction in cell viability at 10 uM by MTT assay; type: toxicity, cell-based
PC-12 [12] = assay: Cytotoxicity against rat PC-12 cells assessed as reduction in cell viability at 10 uM by MTT assay; type: toxicity, cell-based; conditions: pc-12, 10 µM
[13] = Acute toxicity in ICR mouse assessed as increase in body weight at 1000 mg/kg, po measured after 14 days; type: organism-based; conditions: in vivo, 336 h, time 14 day
Cholinesterase [14] = biological target: T1, Cholinesterase (Homo sapiens, UniProt P06276); assay: Inhibition of human BChE assessed as inhibition constant
[15] = Acute toxicity in ICR mouse assessed as abnormal behavior at 1000 mg/kg, po measured after 4 hrs; type: organism-based; conditions: in vivo
Cholinesterase [16] = biological target: T1, Cholinesterase; assay: Inhibition of human BChE using acetylthiocholine iodide or butyrylthiocholine iodide as substrate preincubated for 5 mins followed by substrate addition by Ellman's method
[17] = Acute toxicity in ICR mouse assessed as effect on consumption of water and food at 1000 mg/kg, po measured after 14 days; type: organism-based; conditions: in vivo, 336 h, time 14 day
Cholinesterase [18] = biological target: Cholinesterase (Equus caballus, UniProt P81908); assay: Inhibition of horse serum BChE using acetylthiocholine iodide or butyrylthiocholine iodide as substrate preincubated for 5 mins followed by substrate addition by Ellman's method
Cholinesterase [19] = biological target: T1, Cholinesterase; assay: Binding affinity to human BChE assessed as dissociation constant by surface plasmon resonance assay

T1 sequence (P06276 whole entry): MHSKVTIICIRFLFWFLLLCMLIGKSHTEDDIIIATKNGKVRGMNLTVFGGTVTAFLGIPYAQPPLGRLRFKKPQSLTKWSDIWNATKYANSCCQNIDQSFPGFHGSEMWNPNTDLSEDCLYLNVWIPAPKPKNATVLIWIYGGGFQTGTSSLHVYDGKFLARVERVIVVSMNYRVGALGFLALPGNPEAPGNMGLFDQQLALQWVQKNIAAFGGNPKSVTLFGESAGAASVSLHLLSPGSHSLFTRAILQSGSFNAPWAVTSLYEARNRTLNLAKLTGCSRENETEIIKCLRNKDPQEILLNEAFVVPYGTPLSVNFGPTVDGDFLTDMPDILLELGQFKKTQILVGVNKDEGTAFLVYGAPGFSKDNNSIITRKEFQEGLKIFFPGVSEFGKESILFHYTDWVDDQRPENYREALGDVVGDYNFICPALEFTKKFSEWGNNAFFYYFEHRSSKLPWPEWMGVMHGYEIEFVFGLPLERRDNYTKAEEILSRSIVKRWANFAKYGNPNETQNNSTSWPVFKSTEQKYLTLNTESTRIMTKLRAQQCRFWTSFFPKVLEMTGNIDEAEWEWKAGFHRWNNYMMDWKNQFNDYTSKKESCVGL
Sequence of Cholinesterase (Equus caballus, UniProt P81908) (P81908 whole entry): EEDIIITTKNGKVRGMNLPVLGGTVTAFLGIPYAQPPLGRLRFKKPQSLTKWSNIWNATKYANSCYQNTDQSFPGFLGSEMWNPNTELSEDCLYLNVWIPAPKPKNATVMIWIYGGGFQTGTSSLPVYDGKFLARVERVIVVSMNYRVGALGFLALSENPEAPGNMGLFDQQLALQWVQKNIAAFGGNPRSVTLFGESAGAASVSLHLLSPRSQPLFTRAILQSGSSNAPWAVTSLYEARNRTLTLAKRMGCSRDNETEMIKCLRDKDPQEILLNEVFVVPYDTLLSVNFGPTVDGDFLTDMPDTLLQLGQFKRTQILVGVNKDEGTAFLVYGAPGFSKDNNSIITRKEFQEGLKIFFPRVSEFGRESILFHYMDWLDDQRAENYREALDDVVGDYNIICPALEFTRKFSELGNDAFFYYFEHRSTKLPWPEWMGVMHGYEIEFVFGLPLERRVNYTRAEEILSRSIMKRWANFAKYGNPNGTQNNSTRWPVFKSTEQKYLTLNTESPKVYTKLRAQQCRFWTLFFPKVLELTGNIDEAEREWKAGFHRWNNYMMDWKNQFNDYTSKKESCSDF

CN(C)Cc1ccccc1CNC(=O)c1cccc(NC(=O)c2cccs2)c1
Activity (SH-SY5Y [1]): 64.12% | viability at 10 µM [2]: > 70% | viability at 10 µM [3]: > 70% | logP [4]: 1.93 | viability at 5 µM (SH-SY5Y [5]): 68% | Activity (PC-12 [6]): 61.7% | Papp at 18 h [7]: 6.82 ×10⁻⁶ cm/s | Activity (HT-22): Non-Toxic | viability at 10 µM [8]: > 70% | viability at 2 µM (SH-SY5Y [9]): 82.6% | Activity (BV-2): Non-Toxic | viability at 10 µM [10]: > 70% | Activity (SH-SY5Y [11]): Non-Toxic | Activity (PC-12 [12]): Non-Toxic

CCN(CC)Cc1ccccc1CNC(=O)c1cc(C)cc(NC(=O)c2ccc(F)cc2)c1
Activity [13]: Non-Toxic | logP [4]: 1.26 | Ki (Cholinesterase [14]): 0.094 nM | Activity [15]: Non-Toxic | Papp at 18 h [7]: 9.17 ×10⁻⁶ cm/s | IC50 (Cholinesterase [16]): 0.039 nM | Activity [17]: Non-Toxic | IC50 (Cholinesterase [18]): 0.021 nM | Kd (Cholinesterase [19]): 0.064 nM
